# Source: patent publication US7192924B2, “Corticotropin releasing factor 2 receptor agonists” (priority 2002, dated 2007)
# Peptide text beside a SMILES is read from it.
# How the values were obtained:
# CRF1R = target: T1, CRF1R (Homo sapiens, UniProt P34998); test: CRF1R agonist activity (EC50, Emax), called comparative CRF binding; assay type: cell-based; conditions: read-out: CRF1R EC50
# T1 sequence (P34998 24-415): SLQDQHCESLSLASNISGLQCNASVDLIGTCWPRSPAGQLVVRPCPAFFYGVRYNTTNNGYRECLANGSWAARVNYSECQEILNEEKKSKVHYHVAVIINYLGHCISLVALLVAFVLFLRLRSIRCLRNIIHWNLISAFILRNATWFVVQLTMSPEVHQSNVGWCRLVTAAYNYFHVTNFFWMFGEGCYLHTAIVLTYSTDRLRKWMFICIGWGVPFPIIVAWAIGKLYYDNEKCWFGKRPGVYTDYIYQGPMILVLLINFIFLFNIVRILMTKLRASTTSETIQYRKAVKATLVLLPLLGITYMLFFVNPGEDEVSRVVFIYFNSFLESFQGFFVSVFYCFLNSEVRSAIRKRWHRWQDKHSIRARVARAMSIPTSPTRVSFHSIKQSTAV
# Summary of the method: (§1)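 Cells expressing only CRF1R or CRF2R (recombinant, or with the other receptor disabled or its signal subtracted) were treated with peptide or vehicle control. Activation was read as cAMP induction in cell lysates or via a cAMP-responsive-element reporter gene.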
# CRF2R = target: T2, CRF2R (Homo sapiens, UniProt Q13324); test: CRF2R agonist activity (EC50, Emax), called comparative CRF binding; assay type: cell-based; conditions: read-out: CRF2R EC50
# T2 sequence (Q13324 1-411): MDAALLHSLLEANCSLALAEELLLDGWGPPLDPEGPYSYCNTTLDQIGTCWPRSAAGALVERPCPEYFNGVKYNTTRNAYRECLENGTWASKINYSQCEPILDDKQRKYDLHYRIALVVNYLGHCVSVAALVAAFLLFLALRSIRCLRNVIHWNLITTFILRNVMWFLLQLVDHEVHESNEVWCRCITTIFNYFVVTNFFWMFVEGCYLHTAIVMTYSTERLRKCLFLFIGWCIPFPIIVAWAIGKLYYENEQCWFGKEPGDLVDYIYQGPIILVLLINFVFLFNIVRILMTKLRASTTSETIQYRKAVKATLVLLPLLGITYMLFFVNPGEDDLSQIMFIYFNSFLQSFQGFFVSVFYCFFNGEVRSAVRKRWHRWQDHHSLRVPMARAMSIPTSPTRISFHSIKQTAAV
# Summary of the method: as §1
SMILES,EC50 (CRF1R),EC50 (CRF2R)
CC[C@H](C)[C@H](NC(=O)[C@H](CCC(N)=O)NC(=O)[C@H](C)NC(=O)[C@H](CC(N)=O)NC(=O)[C@H](CCC(N)=O)NC(=O)[C@H](CCC(=O)O)NC(=O)[C@H](C)NC(=O)[C@H](CCCNC(=N)N)NC(=O)[C@H](CCC(=O)O)NC(=O)[C@H](CCCNC(=N)N)NC(=O)[C@H](CCC(N)=O)NC(=O)[C@H](CO)NC(=O)[C@H](CCC(N)=O)NC(=O)[C@@H](NC(=O)[C@H](CCCCN)NC(=O)[C@H](CCC(=O)O)NC(=O)[C@H](CC(C)C)NC(=O)[C@H](CCC(=O)O)NC(=O)[C@H](CC(C)C)NC(=O)[C@H](CC(C)C)NC(=O)[C@@H](NC(=O)[C@H](CCCNC(=N)N)NC(=O)[C@H](CC(C)C)NC(=O)[C@H](CC(C)C)NC(=O)[C@H](CC(C)C)NC(=O)[C@H](CC(C)C)NC(=O)[C@@H]1CCCN1C(=O)[C@H](CC(C)C)NC(=O)[C@H](CC(=O)O)NC(=O)[C@@H](NC(=O)[C@H](CO)NC(=O)[C@H](CC(C)C)NC(=O)[C@H](CO)NC(=O)[C@@H]1CCCN1C(=O)[C@H](CC(N)=O)NC(=O)[C@@H](N)CC(=O)O)[C@@H](C)CC)[C@@H](C)O)[C@@H](C)O)C(=O)N[C@@H](Cc1ccccc1)C(=O)N[C@@H](C)C(=O)N[C@@H](CCC(N)=O)C(=O)N[C@H](C(N)=O)C(C)C [compound 327] (H-DNPSLSIDLPLLLLRTLLELEKTQSQRERAEQNAQIFAQV-NH2; N-terminus assumed),≥ 1000 nM,28.4 nM
CC[C@H](C)[C@H](NC(=O)[C@H](CCCNC(=N)N)NC(=O)[C@H](C)NC(=O)[C@H](CC(N)=O)NC(=O)[C@H](CCC(N)=O)NC(=O)[C@H](CCC(=O)O)NC(=O)[C@H](C)NC(=O)[C@H](CCCNC(=N)N)NC(=O)[C@H](CCC(=O)O)NC(=O)[C@H](CCCNC(=N)N)NC(=O)[C@H](CCC(N)=O)NC(=O)[C@H](CO)NC(=O)[C@H](CCC(N)=O)NC(=O)[C@@H](NC(=O)[C@H](CCCNC(=N)N)NC(=O)[C@H](C)NC(=O)[C@H](CC(C)C)NC(=O)[C@H](CCC(=O)O)NC(=O)[C@H](CC(C)C)NC(=O)[C@H](CC(C)C)NC(=O)[C@@H](NC(=O)[C@H](CCCNC(=N)N)NC(=O)[C@H](CC(C)C)NC(=O)[C@H](CC(C)C)NC(=O)[C@H](Cc1ccccc1)NC(=O)[C@H](CC(C)C)NC(=O)[C@@H]1CCCN1C(=O)[C@H](CC(C)C)NC(=O)[C@H](CC(=O)O)NC(=O)[C@@H](NC(=O)[C@H](CO)NC(=O)[C@H](CC(C)C)NC(=O)[C@H](CO)NC(=O)[C@@H]1CCCN1C(=O)[C@H](CC(N)=O)NC(=O)[C@@H](N)CC(=O)O)[C@@H](C)CC)[C@@H](C)O)[C@@H](C)O)C(=O)N[C@@H](Cc1ccccc1)C(=O)N[C@@H](C)C(=O)N[C@@H](CCCNC(=N)N)C(=O)N[C@H](C(N)=O)C(C)C [compound 329] (H-DNPSLSIDLPLFLLRTLLELARTQSQRERAEQNARIFARV-NH2; N-terminus assumed),≥ 1000 nM,5.15 nM
CC[C@H](C)[C@H](NC(=O)[C@H](CCCNC(=N)N)NC(=O)[C@H](C)NC(=O)[C@H](CC(N)=O)NC(=O)[C@H](CCC(N)=O)NC(=O)[C@H](CCC(=O)O)NC(=O)[C@H](C)NC(=O)[C@H](CCCNC(=N)N)NC(=O)[C@H](CCC(=O)O)NC(=O)[C@H](CCCNC(=N)N)NC(=O)[C@H](CCC(N)=O)NC(=O)[C@H](CO)NC(=O)[C@H](CCC(N)=O)NC(=O)[C@@H](NC(=O)[C@H](CCCCN)NC(=O)[C@H](CCC(=O)O)NC(=O)[C@H](CC(C)C)NC(=O)[C@H](CCC(=O)O)NC(=O)[C@H](CC(C)C)NC(=O)[C@H](CC(C)C)NC(=O)[C@@H](NC(=O)[C@H](CCCNC(=N)N)NC(=O)[C@H](CC(C)C)NC(=O)[C@H](CC(C)C)NC(=O)[C@H](Cc1ccccc1)NC(=O)[C@H](CC(C)C)NC(=O)[C@@H]1CCCN1C(=O)[C@H](CC(C)C)NC(=O)[C@H](CC(=O)O)NC(=O)[C@@H](NC(=O)[C@H](CO)NC(=O)[C@H](CC(C)C)NC(=O)[C@H](CO)NC(=O)[C@@H]1CCCN1)[C@@H](C)CC)[C@@H](C)O)[C@@H](C)O)C(=O)N[C@@H](Cc1ccccc1)C(=O)N[C@@H](C)C(=O)N[C@@H](CCCNC(=N)N)C(=O)N[C@H](C(N)=O)C(C)C [compound 331] (H-PSLSIDLPLFLLRTLLELEKTQSQRERAEQNARIFARV-NH2; N-terminus assumed),≥ 1000 nM,9.85 nM
CC[C@H](C)[C@H](NC(=O)[C@H](CCCNC(=N)N)NC(=O)[C@H](C)NC(=O)[C@H](CC(N)=O)NC(=O)[C@H](CCC(N)=O)NC(=O)[C@H](CCC(=O)O)NC(=O)[C@H](C)NC(=O)[C@H](CCCNC(=N)N)NC(=O)[C@H](CCC(=O)O)NC(=O)[C@H](CCCNC(=N)N)NC(=O)[C@H](CCC(N)=O)NC(=O)[C@H](CO)NC(=O)[C@H](CCC(N)=O)NC(=O)[C@@H](NC(=O)[C@H](CCCCN)NC(=O)[C@H](CCC(=O)O)NC(=O)[C@H](CC(C)C)NC(=O)[C@H](CCC(=O)O)NC(=O)[C@H](CC(C)C)NC(=O)[C@H](CC(C)C)NC(=O)[C@@H](NC(=O)[C@H](CCCNC(=N)N)NC(=O)[C@H](CC(C)C)NC(=O)[C@H](CC(C)C)NC(=O)[C@@H](NC(=O)[C@H](CC(C)C)NC(=O)[C@@H]1CCCN1C(=O)[C@H](CC(C)C)NC(=O)[C@H](CC(=O)O)NC(=O)[C@@H](NC(=O)[C@H](CO)NC(=O)[C@H](CC(C)C)NC(=O)[C@H](CO)NC(=O)[C@@H]1CCCN1)[C@@H](C)CC)[C@@H](C)CC)[C@@H](C)O)[C@@H](C)O)C(=O)N[C@@H](Cc1ccccc1)C(=O)N[C@@H](C)C(=O)N[C@@H](CCCNC(=N)N)C(=O)N[C@H](C(N)=O)C(C)C [compound 332] (H-PSLSIDLPLILLRTLLELEKTQSQRERAEQNARIFARV-NH2; N-terminus assumed),≥ 1000 nM,9.95 nM
CC[C@H](C)[C@H](NC(=O)[C@H](CCCNC(=N)N)NC(=O)[C@H](C)NC(=O)[C@H](CC(N)=O)NC(=O)[C@H](CCC(N)=O)NC(=O)[C@H](CCC(=O)O)NC(=O)[C@H](C)NC(=O)[C@H](CCCNC(=N)N)NC(=O)[C@H](CCC(=O)O)NC(=O)[C@H](CCCNC(=N)N)NC(=O)[C@H](CCC(N)=O)NC(=O)[C@H](CO)NC(=O)[C@H](CCC(N)=O)NC(=O)[C@@H](NC(=O)[C@H](CCCCN)NC(=O)[C@H](CCC(=O)O)NC(=O)[C@H](CC(C)C)NC(=O)[C@H](CCC(=O)O)NC(=O)[C@H](CC(C)C)NC(=O)[C@H](CC(C)C)NC(=O)[C@@H](NC(=O)[C@H](CCCNC(=N)N)NC(=O)[C@H](CC(C)C)NC(=O)[C@H](CC(C)C)NC(=O)[C@H](Cc1ccccc1)NC(=O)[C@H](CC(C)C)NC(=O)[C@@H]1CCCN1C(=O)[C@H](CC(C)C)NC(=O)[C@H](CC(=O)O)NC(=O)[C@@H](NC(=O)[C@H](CO)NC(=O)[C@H](CC(C)C)NC(=O)[C@H](CO)NC(=O)[C@@H]1CCCN1C(=O)[C@H](CC(N)=O)NC(=O)[C@@H](N)CC(=O)O)[C@@H](C)CC)[C@@H](C)O)[C@@H](C)O)C(=O)N[C@@H](Cc1ccccc1)C(=O)N[C@@H](CC(=O)O)C(=O)N[C@@H](CCCNC(=N)N)C(=O)N[C@H](C(N)=O)C(C)C [compound 336] (H-DNPSLSIDLPLFLLRTLLELEKTQSQRERAEQNARIFDRV-NH2; N-terminus assumed),≥ 1000 nM,17.8 nM
CC[C@H](C)[C@H](NC(=O)[C@H](CCCNC(=N)N)NC(=O)[C@H](C)NC(=O)[C@H](CC(N)=O)NC(=O)[C@H](CCC(N)=O)NC(=O)[C@H](CCC(=O)O)NC(=O)[C@H](C)NC(=O)[C@H](CCCNC(=N)N)NC(=O)[C@H](CCC(=O)O)NC(=O)[C@H](CCCNC(=N)N)NC(=O)[C@H](CCC(N)=O)NC(=O)[C@H](CO)NC(=O)[C@H](CCC(N)=O)NC(=O)[C@@H](NC(=O)[C@H](CCCCN)NC(=O)[C@H](CCC(=O)O)NC(=O)[C@H](CC(C)C)NC(=O)[C@H](CCC(=O)O)NC(=O)[C@H](CC(C)C)NC(=O)[C@H](CC(C)C)NC(=O)[C@@H](NC(=O)[C@H](CCCNC(=N)N)NC(=O)[C@H](CC(C)C)NC(=O)[C@H](CC(C)C)NC(=O)[C@H](CC(C)C)NC(=O)[C@H](CC(C)C)NC(=O)[C@@H]1CCCN1C(=O)[C@H](CC(C)C)NC(=O)[C@H](CC(=O)O)NC(=O)[C@@H](NC(=O)[C@H](CO)NC(=O)[C@H](CC(C)C)NC(=O)[C@H](CO)NC(=O)[C@@H]1CCCN1C(=O)[C@H](CC(N)=O)NC(=O)[C@@H](N)CC(=O)O)[C@@H](C)CC)[C@@H](C)O)[C@@H](C)O)C(=O)N[C@@H](Cc1ccccc1)C(=O)N[C@@H](CC(=O)O)C(=O)N[C@@H](CCCNC(=N)N)C(=O)N[C@H](C(N)=O)C(C)C [compound 338] (H-DNPSLSIDLPLLLLRTLLELEKTQSQRERAEQNARIFDRV-NH2; N-terminus assumed),≥ 1000 nM,19.3 nM
